In PMC8716817 (Frontiers in Pharmacology, 2021):

Experiments:
NaV1.8 = target: T1, NaV1.8 (Rattus norvegicus, UniProt Q62968); type: cell-based
T1 construct: gene Scn10a

NaV1.7 = target: T2, NaV1.7 (Rattus norvegicus, UniProt O08562); assay: whole-cell patch clamp, stable NaV1.[…] HEK cells (vincristine pre-incubated); type: cell-based
T2 construct: gene Scn9a
T2 sequence (O08562 whole entry): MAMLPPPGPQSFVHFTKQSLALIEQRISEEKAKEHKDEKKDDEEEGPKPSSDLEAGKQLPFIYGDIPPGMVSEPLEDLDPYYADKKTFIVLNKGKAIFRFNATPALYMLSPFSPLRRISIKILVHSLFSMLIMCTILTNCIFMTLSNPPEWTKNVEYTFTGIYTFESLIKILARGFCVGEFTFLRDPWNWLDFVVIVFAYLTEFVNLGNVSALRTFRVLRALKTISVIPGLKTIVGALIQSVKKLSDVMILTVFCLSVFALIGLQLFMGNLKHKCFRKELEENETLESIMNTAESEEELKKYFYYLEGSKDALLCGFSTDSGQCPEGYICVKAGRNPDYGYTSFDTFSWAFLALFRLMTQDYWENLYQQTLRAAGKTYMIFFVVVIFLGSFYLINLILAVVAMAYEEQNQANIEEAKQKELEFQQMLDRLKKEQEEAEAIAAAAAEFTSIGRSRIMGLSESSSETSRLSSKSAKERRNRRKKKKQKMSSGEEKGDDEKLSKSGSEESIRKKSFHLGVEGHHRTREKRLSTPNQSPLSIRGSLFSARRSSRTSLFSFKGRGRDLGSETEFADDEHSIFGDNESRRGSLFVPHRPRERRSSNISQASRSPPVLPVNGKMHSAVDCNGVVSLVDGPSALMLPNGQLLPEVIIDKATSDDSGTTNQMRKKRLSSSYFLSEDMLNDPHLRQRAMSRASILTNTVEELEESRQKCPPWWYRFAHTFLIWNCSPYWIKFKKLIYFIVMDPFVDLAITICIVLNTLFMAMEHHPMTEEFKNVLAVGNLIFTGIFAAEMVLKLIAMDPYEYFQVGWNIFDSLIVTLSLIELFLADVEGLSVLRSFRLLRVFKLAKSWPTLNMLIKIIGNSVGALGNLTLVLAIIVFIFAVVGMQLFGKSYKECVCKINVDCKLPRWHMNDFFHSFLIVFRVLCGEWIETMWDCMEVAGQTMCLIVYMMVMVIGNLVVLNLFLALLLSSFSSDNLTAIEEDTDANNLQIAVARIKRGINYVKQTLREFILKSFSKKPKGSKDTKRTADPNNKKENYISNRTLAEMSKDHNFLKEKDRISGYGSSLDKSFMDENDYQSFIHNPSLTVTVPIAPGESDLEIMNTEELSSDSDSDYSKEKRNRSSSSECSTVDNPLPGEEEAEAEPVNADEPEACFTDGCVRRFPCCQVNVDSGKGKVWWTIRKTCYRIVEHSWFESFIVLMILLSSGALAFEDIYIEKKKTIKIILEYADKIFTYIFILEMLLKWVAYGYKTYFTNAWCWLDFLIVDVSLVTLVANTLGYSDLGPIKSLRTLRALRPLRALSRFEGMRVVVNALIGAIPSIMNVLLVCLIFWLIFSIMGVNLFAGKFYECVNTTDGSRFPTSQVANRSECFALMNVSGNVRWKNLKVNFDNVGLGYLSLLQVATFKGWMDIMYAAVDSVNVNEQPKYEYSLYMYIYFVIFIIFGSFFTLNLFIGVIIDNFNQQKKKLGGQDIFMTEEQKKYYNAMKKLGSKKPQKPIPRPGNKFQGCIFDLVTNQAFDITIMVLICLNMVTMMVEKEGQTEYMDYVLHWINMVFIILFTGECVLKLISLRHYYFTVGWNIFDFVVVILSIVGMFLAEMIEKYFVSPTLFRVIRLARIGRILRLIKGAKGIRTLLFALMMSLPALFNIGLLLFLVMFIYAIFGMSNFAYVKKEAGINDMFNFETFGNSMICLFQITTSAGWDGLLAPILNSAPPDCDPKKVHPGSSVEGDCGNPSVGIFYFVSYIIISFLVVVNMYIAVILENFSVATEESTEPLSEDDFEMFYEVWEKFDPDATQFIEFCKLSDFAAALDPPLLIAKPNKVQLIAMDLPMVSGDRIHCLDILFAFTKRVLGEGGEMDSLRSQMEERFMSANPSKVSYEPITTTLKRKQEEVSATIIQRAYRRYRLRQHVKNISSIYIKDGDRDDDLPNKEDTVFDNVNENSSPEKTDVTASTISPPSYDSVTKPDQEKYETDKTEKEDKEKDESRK

T1 sequence (Q62968 whole entry): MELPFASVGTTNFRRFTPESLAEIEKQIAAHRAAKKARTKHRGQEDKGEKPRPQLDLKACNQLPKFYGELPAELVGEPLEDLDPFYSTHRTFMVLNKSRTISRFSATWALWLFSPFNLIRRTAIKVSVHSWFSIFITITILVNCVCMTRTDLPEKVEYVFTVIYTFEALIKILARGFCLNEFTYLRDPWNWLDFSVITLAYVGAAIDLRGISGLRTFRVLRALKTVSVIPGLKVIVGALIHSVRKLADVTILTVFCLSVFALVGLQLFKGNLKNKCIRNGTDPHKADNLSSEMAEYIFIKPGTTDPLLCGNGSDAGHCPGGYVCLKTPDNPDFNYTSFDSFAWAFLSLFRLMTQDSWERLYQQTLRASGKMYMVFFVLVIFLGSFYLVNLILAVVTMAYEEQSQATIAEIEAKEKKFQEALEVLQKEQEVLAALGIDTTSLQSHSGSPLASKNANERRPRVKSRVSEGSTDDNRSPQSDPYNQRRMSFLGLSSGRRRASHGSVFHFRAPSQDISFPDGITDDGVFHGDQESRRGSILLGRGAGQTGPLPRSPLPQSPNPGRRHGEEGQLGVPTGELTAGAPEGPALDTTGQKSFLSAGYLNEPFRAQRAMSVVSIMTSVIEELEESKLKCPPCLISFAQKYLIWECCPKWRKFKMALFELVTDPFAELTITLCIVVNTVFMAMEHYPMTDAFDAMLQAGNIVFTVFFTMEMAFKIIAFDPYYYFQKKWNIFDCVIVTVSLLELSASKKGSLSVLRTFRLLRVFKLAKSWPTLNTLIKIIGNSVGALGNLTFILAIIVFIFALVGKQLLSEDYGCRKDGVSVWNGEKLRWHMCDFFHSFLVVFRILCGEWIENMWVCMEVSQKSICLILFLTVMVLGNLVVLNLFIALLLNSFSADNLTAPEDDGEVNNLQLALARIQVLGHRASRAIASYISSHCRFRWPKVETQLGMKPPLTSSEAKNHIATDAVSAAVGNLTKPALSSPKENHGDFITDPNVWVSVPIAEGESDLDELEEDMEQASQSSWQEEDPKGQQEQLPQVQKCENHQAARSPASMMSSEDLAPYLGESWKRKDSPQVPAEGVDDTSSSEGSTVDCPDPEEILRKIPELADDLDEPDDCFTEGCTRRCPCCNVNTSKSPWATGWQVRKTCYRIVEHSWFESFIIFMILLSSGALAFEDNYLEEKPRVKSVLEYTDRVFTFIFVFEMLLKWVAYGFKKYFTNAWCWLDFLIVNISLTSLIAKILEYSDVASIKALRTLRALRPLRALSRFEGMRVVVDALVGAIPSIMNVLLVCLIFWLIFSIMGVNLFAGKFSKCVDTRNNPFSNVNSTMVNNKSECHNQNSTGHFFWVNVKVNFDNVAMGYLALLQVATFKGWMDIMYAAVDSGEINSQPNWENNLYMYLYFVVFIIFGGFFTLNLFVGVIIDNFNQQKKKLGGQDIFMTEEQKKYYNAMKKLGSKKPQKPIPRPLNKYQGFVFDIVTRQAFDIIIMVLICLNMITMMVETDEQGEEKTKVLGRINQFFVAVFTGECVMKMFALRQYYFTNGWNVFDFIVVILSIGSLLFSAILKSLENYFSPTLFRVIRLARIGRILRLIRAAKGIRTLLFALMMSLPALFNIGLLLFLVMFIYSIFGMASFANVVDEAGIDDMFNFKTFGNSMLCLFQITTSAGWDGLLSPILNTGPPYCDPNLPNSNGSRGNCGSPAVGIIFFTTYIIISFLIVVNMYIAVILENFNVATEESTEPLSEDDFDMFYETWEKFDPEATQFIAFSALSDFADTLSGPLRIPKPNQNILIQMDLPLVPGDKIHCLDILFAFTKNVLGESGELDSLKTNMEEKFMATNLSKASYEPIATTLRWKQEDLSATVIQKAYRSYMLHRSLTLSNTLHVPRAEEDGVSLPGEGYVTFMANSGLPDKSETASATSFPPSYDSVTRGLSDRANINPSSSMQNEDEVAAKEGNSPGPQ

OCc1ccc(O[C@@H]2O[C@H](CO)[C@@H](O)[C@H](O)[C@H]2O)cc1 [GAS, Gastrodin]
IC50 (NaV1.8): 67.5 ± 20.7 µM | IC50 (NaV1.7): 25.9 ± 0.98 µM
